Values of other authors, collected in US20100028425A1, “PHARMACEUTICAL COMPOSITION OF ATOVAQUONE” (GLENMARK GENERICS LTD., priority 2008, published 2010).

solubility in water: practically insoluble
SMILES: O=C1C(O)=C([C@H]2CC[C@H](c3ccc(Cl)cc3)CC2)C(=O)c2ccccc21 [Atovaquone, trans 2-[4-(4-chlorophenyl)cyclohexyl]-3-hydroxy-1,4-naphthalenedione]
